Earlier results on four compounds are cited in PubChem BioAssay AID1259409 (Chemical Carcinogenesis Research Information System (CCRIS), 2018).

The series deals with rodent chemically induced tumor inhibition, incidence and multiplicity. The experiment in a line: CCRIS tumor inhibitor studies.

Several values for one entry are separate records, joined by “and”; a condition that tells them apart may be missing. Equal values may be shown once.

Consider `Oc1c(F)c(F)cc(F)c1F`, for which, under “Carcinogen: BENZO[A]PYRENE, 50-32-8, Dose [Inhibitor]: 0.03 MMOL/G OF DIET DAILY STARTING 7 D BEFORE AND CONTINUING THROUGH 3 D AFTER CARCINOGEN TREATMENT FOLLOWED BY OBSERVAT, Route [Inhibitor]: ORAL, Species: MOUSE, Strain/Sex: ICR/FEMALE, Target Tissue: Type of Lesion: FORESTOMACH: NEOPLASM, Dose [Carcinogen]: 1 MG IN 0.2 ML CORN OIL 2/WK FOR 4 WK, Promoter: NONE USED”, the “tumour outcome (control, treated, inhibition, significance)” value is 100%, 95%, 5%, not significant and 97%, 84%, 13%, not significant.

Turning to `CC(=O)OCC(=O)[C@H]1CC[C@H]2[C@@H]3CCC4=CC(=O)CC[C@]4(C)[C@H]3CC[C@]12C`, the “tumour outcome (control, treated, inhibition, significance)” value is 14/14 (100%), 13/13 (100%), 0%, not significant (Carcinogen: 1,2-DIMETHYLHYDRAZINE DIHYDROCHLORIDE, 306-37-6, Dose [Inhibitor]: 0, 10 MG/KG IN PEANUT OIL ON DAYS 1 AND 3 OF STUDY THEN 1/WK FOR 30 WK (STUDY DURATION: 31 WK), Route [Inhibitor]: SUBCUTANEOUS, Species: RAT, Strain/Sex: SPRAGUE-DAWLEY/MALE, Target Tissue: Type of Lesion: COLON: ADENOCARCINOMA, Dose [Carcinogen]: 9 MG/KG 1/WK FOR 7 WK THEN 19.4 MG/KG 1/WK FOR 13 WK, Promoter: NONE USED) and 13/14 (93%), 9/13 (69%), 26%, not significant (Carcinogen: 1,2-DIMETHYLHYDRAZINE DIHYDROCHLORIDE, 306-37-6, Dose [Inhibitor]: 0, 10 MG/KG IN PEANUT OIL ON DAYS 1 AND 3 OF STUDY THEN 1/WK FOR 30 WK (STUDY DURATION: 31 WK), Route [Inhibitor]: SUBCUTANEOUS, Species: RAT, Strain/Sex: SPRAGUE-DAWLEY/MALE, Target Tissue: Type of Lesion: SMALL INTESTINE: ADENOCARCINOMA, Dose [Carcinogen]: 9 MG/KG 1/WK FOR 7 WK THEN 19.4 MG/KG 1/WK FOR 13 WK, Promoter: NONE USED).

As to `COc1ccc(-c2cc(=S)ss2)cc1`, the “tumour outcome (control, treated, inhibition, significance)” value runs as follows: (Carcinogen: 7,12-DIMETHYLBENZ[A]ANTHRACENE, 57-97-6, Dose [Inhibitor]: 0, 200 PPM IN DIET FOR DURATION OF STUDY BEGINNING 1 WK PRIOR TO CARCINOGEN DOSE (STUDY DURATION: 107 D), Route [Inhibitor]: ORAL, Species: RAT, Strain/Sex: SPRAGUE-DAWLEY/FEMALE, Target Tissue: Type of Lesion: MAMMARY GLAND: ADENOCARCINOMA, Dose [Carcinogen]: 12 MG ONCE, Promoter: NONE USED) 80%, 75%, 6%, not significant; (Carcinogen: 7,12-DIMETHYLBENZ[A]ANTHRACENE, 57-97-6, Dose [Inhibitor]: 0, 400 PPM IN DIET FOR DURATION OF STUDY BEGINNING 1 WK PRIOR TO CARCINOGEN DOSE (STUDY DURATION: 107 D), Route [Inhibitor]: ORAL, Species: RAT, Strain/Sex: SPRAGUE-DAWLEY/FEMALE, Target Tissue: Type of Lesion: MAMMARY GLAND: ADENOCARCINOMA, Dose [Carcinogen]: 12 MG ONCE, Promoter: NONE USED) 80%, 85%, -6%, not significant; (Carcinogen: AZOXYMETHANE, 25843-45-2, Dose [Inhibitor]: 0, 100 PPM IN DIET BEGINNING 2 WK PRIOR TO CARCINOGEN TREATMENT AND CONTINUING FOR DURATION OF STUDY (STUDY DURATION: 56, Route [Inhibitor]: ORAL, Species: RAT, Strain/Sex: F344/MALE, Target Tissue: Type of Lesion: COLON: INVASIVE ADENOCARCINOMA, Dose [Carcinogen]: 15 MG/KG 1/WK FOR 2 WK, Promoter: NONE USED) 34%, 11%, 68%, p<0.05; (Carcinogen: AZOXYMETHANE, 25843-45-2, Dose [Inhibitor]: 0, 100 PPM IN DIET BEGINNING 2 WK PRIOR TO CARCINOGEN TREATMENT AND CONTINUING FOR DURATION OF STUDY (STUDY DURATION: 56, Route [Inhibitor]: ORAL, Species: RAT, Strain/Sex: F344/MALE, Target Tissue: Type of Lesion: COLON: NONINVASIVE ADENOCARCINOMA, Dose [Carcinogen]: 15 MG/KG 1/WK FOR 2 WK, Promoter: NONE USED) 53%, 47%, 11%, not significant; (Carcinogen: AZOXYMETHANE, 25843-45-2, Dose [Inhibitor]: 0, 200 PPM IN DIET BEGINNING 2 WK PRIOR TO CARCINOGEN TREATMENT AND CONTINUING FOR DURATION OF STUDY (STUDY DURATION: 56, Route [Inhibitor]: ORAL, Species: RAT, Strain/Sex: F344/MALE, Target Tissue: Type of Lesion: COLON: INVASIVE ADENOCARCINOMA, Dose [Carcinogen]: 15 MG/KG 1/WK FOR 2 WK, Promoter: NONE USED) 34%, 8%, 76%, p<0.01; (Carcinogen: AZOXYMETHANE, 25843-45-2, Dose [Inhibitor]: 0, 200 PPM IN DIET BEGINNING 2 WK PRIOR TO CARCINOGEN TREATMENT AND CONTINUING FOR DURATION OF STUDY (STUDY DURATION: 56, Route [Inhibitor]: ORAL, Species: RAT, Strain/Sex: F344/MALE, Target Tissue: Type of Lesion: COLON: NONINVASIVE ADENOCARCINOMA, Dose [Carcinogen]: 15 MG/KG 1/WK FOR 2 WK, Promoter: NONE USED) 53%, 30%, 43%, p<0.05.

Consider `CC(C)c1cc2c(c(O)c1O)[C@@]13CCCC(C)(C)[C@@H]1C[C@@H]2OC3=O`, for which the “tumour outcome (control, treated, inhibition, significance)” value runs as follows: (Carcinogen: 7,12-DIMETHYLBENZ[A]ANTHRACENE, 57-97-6, Dose [Inhibitor]: 0, 1 UMOL IN 200 µL ACETONE 2/WK FOR 20 WK BEGINNING 1 WK POST CARCINOGEN DOSE (STUDY DURATION: 20 WK), Route [Inhibitor]: DERMAL, Species: MOUSE, Strain/Sex: CD-1/FEMALE, Target Tissue: Type of Lesion: SKIN: TUMOR, Dose [Carcinogen]: 200 NMOL IN 200 µL ACETONE ONCE, Promoter: 12-O-TETRADECANOYLPHORBOL-13-ACETATE, 16561-29-8) 93%, 93%, 0%, not significant; (Carcinogen: 7,12-DIMETHYLBENZ[A]ANTHRACENE, 57-97-6, Dose [Inhibitor]: 0, 3 UMOL IN 200 µL ACETONE 2/WK FOR 20 WK BEGINNING 1 WK POST CARCINOGEN DOSE (STUDY DURATION: 20 WK), Route [Inhibitor]: DERMAL, Species: MOUSE, Strain/Sex: CD-1/FEMALE, Target Tissue: Type of Lesion: SKIN: TUMOR, Dose [Carcinogen]: 200 NMOL IN 200 µL ACETONE ONCE, Promoter: 12-O-TETRADECANOYLPHORBOL-13-ACETATE, 16561-29-8) 93%, 78%, 16%, not significant; (Carcinogen: 7,12-DIMETHYLBENZ[A]ANTHRACENE, 57-97-6, Dose [Inhibitor]: 0, 10 UMOL IN 200 µL ACETONE 2/WK FOR 20 WK BEGINNING 1 WK POST CARCINOGEN DOSE (STUDY DURATION: 20 WK), Route [Inhibitor]: DERMAL, Species: MOUSE, Strain/Sex: CD-1/FEMALE, Target Tissue: Type of Lesion: SKIN: TUMOR, Dose [Carcinogen]: 200 NMOL IN 200 µL ACETONE ONCE, Promoter: 12-O-TETRADECANOYLPHORBOL-13-ACETATE, 16561-29-8) 93%, 60%, 35%, not significant.
